According to patent US9867794B2, “Regulation of osteopontin” (Pathologica LLC, priority 2007, dated 2018):

What was measured:
[1] = system: OPN RNA; assay: OPN production inhibition assay in un-stimulated PBMC cultures, OPN RNA; type: cell-based; conditions: 10 μM, harvested 1, 3 and 6 days
Method: (§1) 10 μM of each drug was added to un-stimulated PBMC cultures at time=0 and cells were harvested 1,3, and 6 days later for quantitative OPN RNA and protein production analysis.

[2] = system: OPN protein; assay: OPN production inhibition assay in un-stimulated PBMC cultures, OPN protein; type: cell-based; conditions: 10 μM
Method: as §1

[3] = system: CD14+/CD16+ cells; assay: Exogenous rOPN on macrophage yield, flow cytometry of PBMC cultures; type: cell-based, human; conditions: 10 μg/ml rOPN
Method: To determine the role of exogenous recombinant human OPN (rOPN) in macrophage activation, 10 μg/ml rOPN(R&D Systems, Inc., Minneapolis, Minn.) was added to non-adherent PBMC cultures grown in complete or in serum free medium for 24 and 72 hours, and analyzed via flow cytometry. […] Shown in the upper right quadrant in FIG. 8 is the percentage of cells that are double positive for CD14 and CD16 surface markers.

[4] = system: CD14+/CD16+ cells; assay: Macrophage activation via flow cytometry, mononuclear cells cultured for 3 days; type: cell-based
Method: (§2) We investigated macrophage activation via flow cytometry and levels of pro- and anti-inflammatory cytokines in cell culture supernatants of mononuclear cells. 10 μg/ml recombinant human OPN (rOPN) was added to mononuclear cells cultured for 3 days, with and without fetal bovine serum (FBS) in cell culture medium, and analyzed via flow cytometry. […] An increase in CD14+/CD16+ cells was also observed with cells cultured in serum free medium and rOPN in comparison to control. To observe the effects of OPN neutralizing antibody on macrophage activation, 10 μg of antibody was added to cultures for 3 days. […] We also investigated the levels of pro- and anti-inflammatory cytokines in all cell culture supernatants of each time point. On average, IL-6, IL-1β, TNF-α, IL-10, and IL-12p40 were at least 50-fold higher with rOPN at 24 and 72 hours in all culture conditions in comparison to control.

[5] = system: pro- and anti-inflammatory cytokines; assay: Cytokine levels in cell culture supernatants of mononuclear cells; type: cell-based; conditions: rOPN
Method: as §2

[6] = 24 and 72 hours, all culture conditions, on average
[7] = any time point and culture condition

CCNCCCNC/C=C\CNCCCNCC.Cl.Cl.Cl.Cl [SL47, N,N′-bis(3-ethylaminopropyl)-cis-but-2-ene-1,4-diamine tetrahydrochloride]
OPN RNA expression [1]: inhibited in a time dependant manner
OPN protein production [2]: Complete inhibition

CCNCCCCNC[C@@H]1C[C@H]1CNCCCCNCC [SL93, N,N′-(cyclopropane-1,2-diylbis(methylene))bis(N4-ethylbutane-1,4-diamine)]
OPN RNA expression [1]: inhibited in a time dependant manner
OPN protein production [2]: Complete inhibition

rOPN: exogenous recombinant human OPN (R&D Systems, Inc.)
accumulation of CD14+/CD16+ cells vs control ([3]; complete medium, 24 hours): no significant accumulation
increase in CD14+/CD16+ cells vs control ([3]; complete medium, 72 hours): 11 fold
increase in CD14+/CD16+ cells vs serum free control ([3]; serum free, 72 hours): 2.97 fold
accumulation of CD14+/CD16+ cells vs FBS-only control ([4]; 10 μg/ml rOPN and FBS, 24 hours): no significant accumulation
increase in CD14+/CD16+ cells vs control ([4]; 10 μg/ml rOPN, 72 hours): 12 fold
CD14+/CD16+ cells vs control ([4]; 10 μg/ml rOPN, serum free medium): increase
IL-1β level vs control [5, 6]: at least 50 fold
IL-6 level vs control [5, 6]: at least 50 fold
IL-10 level vs control [5, 6]: at least 50 fold
IL-12p40 level vs control [5, 6]: at least 50 fold
TNF-α level vs control [5, 6]: at least 50 fold
IL-4 level vs control [5, 7]: no significant difference
IL-12p70 level vs control [5, 7]: no significant difference

B1: MCSF: growth factor MCSF (protein, UniProt P09603 33-554, looked up)
Macrophage colony-stimulating …: EEVSEYCSHMIGSGHLQSLQRLIDSQMETSCQITFEFVDQEQLKDPVCYLKKAFLLVQDIMEDTMRFRDNTPNAIAIVQLQELSLRLKSCFTKDYEEHDKACVRTFYETPLQLLEKVKNVFNETKNLLDKDWNIFSKNCNNSFAECSSQDVVTKPDCNCLYPKAIPSSDPASVSPHQPLAPSMAPVAGLTWEDSEGTEGSSLLPGEQPLHTVDPGSAKQRPPRSTCQSFEPPETPVVKDSTIGGSPQPRPSVGAFNPGMEDILDSAMGTNWVPEEASGEASEIPVPQGTELSPSRPGGGSMQTEPARPSNFLSASSPLPASAKGQQPADVTGTALPRVGPVRPTGQDWNHTPQKTDHPSALLRDPPEPGSPRISSLRPQGLSNPSTLSAQPQLSRSHSSGSVLPLGELEGRRSTRDRRSPAEPEGGPASEGAARPLPRFNSVPLTDTGHERQSEGSFSPQLQESVFHLLVPSVILVLLAVGGLLFYRWRRRSHQEPQRADSPLEQPEGSPLTQDDRQVELPV
OPN RNA expression [1]: no effect
